Earlier results as cited in patent publication US20260295054A1, “GLUCAGON-LIKE PEPTIDE-1 RECEPTOR AGONIST VARIANTS AND METHODS THEREOF” (Neuraly, Inc., priority 2023, published 2026).
Read-outs that look alike come from different tables or passages of the source.

Key:
type 2 diabetic subjects = conditions: for HbA1c reduction from baseline: week 16
[1] = humans

## albiglutide
Type 2 diabetic subjects; 30 mg weekly
  HbA1c reduction from baseline: 0.87%
Type 2 diabetic subjects; 50 mg biweekly
  HbA1c reduction from baseline: 0.79%
Type 2 diabetic subjects; 100 mg monthly
  HbA1c reduction from baseline: 0.87%
Type 2 diabetic subjects; monthly dosing
  albiglutide concentrations between monthly doses: fall essentially to zero between monthly doses
  fasting blood glucose control: substantial loss in fasting blood glucose control
Type 2 diabetic subjects; monthly vs weekly dosing
  nausea and vomiting on dosing days: significantly greater incidence of nausea and vomiting
[1]
  serum half-life: ~ 5 days
